Data: patent US20100256173A1, “Method of Treating Cognitive Impairment” (priority 2009, published 2010)

Tests used:
[1] = test system: Senescence Accelerated Mouse P8 (SAMP8); details: cited from earlier work
[2] = test system: nicotine-stimulated release of acetylcholine (ACh); assay: nicotine-stimulated release of acetylcholine
Text: (§1) Experiments have shown that ST101 potentiates nicotine-stimulated release of acetylcholine (ACh), increases extracellular ACh concentrations in the cerebral cortex, and increases extracellular concentrations of both ACh and dopamine in the hippocampus.

[3] = test system: rodent models of learning and memory; assay: rodent models of learning and memory (age-impaired memory, chemical amnesic agents); assay type: in vivo; details: after both acute (single-dose) and chronic administration
Text: The chemical name for ST101 is spiro(imidazo(1,2-a)pyridin-2(3H)-one-3,2′-indan).
(Yamaguchi Y., et al., J. Pharmacol. Exp. Ther. 317:1079-87 (2006); Ito Y., et al., J. Pharmacol. Exp. Ther. 320: 819-27 (2007)).

[4] = test system: extracellular ACh and dopamine in cerebral cortex and hippocampus; assay: extracellular neurotransmitter concentrations in brain; assay type: in vivo
Text: as §1

[5] = known from other studies; cited from earlier work
[6] = test system: rodent models of learning and memory; details: cited from earlier work

In the case of `O=C1N=C2C=CC=CN2C12Cc1ccccc1C2` [ST101, spiro(imidazo(1,2-a)pyridin-2(3H)-one-3,2′-indan)], the “accumulation of Aβ-like deposits” value ([1]; SAMP8 mouse brain tissue) is given as “decreased”, the “learning and memory functions” value ([1]; SAMP8 mouse) is given as “improvement” and the “nicotine-stimulated release of acetylcholine (ACh)” value [2] is given as “potentiates”. The “pharmacological activity in rodent models of learning and memory relevant to AD” value [3] was “has shown pharmacological activity”, the “extracellular ACh concentrations” value ([4]; cerebral cortex) was “increases” and the “extracellular concentration of ACh” value ([4]; hippocampus) was “increases”. The “extracellular concentration of dopamine” value ([4]; hippocampus) was “increases”, the neuroprotective activity [5] was “has neuroprotective activity” and the “memory deficits induced by methamphetamine” value ([6]; chemical amnesic agent methamphetamine) was “attenuates”. For the same compound, the “memory deficits induced by MK-801” value ([6]; glutamate receptor antagonist MK-801) was “attenuates”, the age-impaired memory ([6]; in vivo) was “significantly improves” and the “memory deficits induced by scopolamine” value ([6]; muscarinic antagonist scopolamine) was “attenuates”.
